Key:
[1] = tested on: antisera raised by presenting a suitable bupropion variant-carrier material conjugate to the immune system of host animals; experiment: competition of bupropion with radiolabeled competitor for binding to antisera; design: species or system rabbit
Procedure: (§1) Samples of six standard solutions of bupropion in blank plasma having concentrations of 0.39 to 50 ng/ml) are pipetted (0.1 ml each) in duplicate into 12×75 mm plastic tubes. Duplicate non-specific binding (no antibody) and maximum binding tubes (no unlabeled bupropion) receive 0.1 ml blank plasma. Spiked plasma controls at several concentrations of (e.g., 1.0, 10.0, and 100 ng/ml) and plasma samples for assay (diluted into the standard range with blank plasma if necessary) are assayed in duplicate. After being placed in an ice bath, all tubes receive (in order) 0.2 ml ^3 H bupropion (416 pg. containing approximately 10^4 cpm) and 0.7 ml anti-bupropion serum (raised to a ring-functionalized immunogen according to the present invention) (at pre-determined dilutions such that approximately 40% of the ^3 H bupropion added is bound), both in assay buffer (0.05 M phosphate-bufferedisotonic saline, containing 0.01 M EDTA and 0.1% gelatin, pH 7.0). […] The supernatants, containing antibody-bound ^3 H bupropion are carefully decanted into liquid scintillation cocktail for quantitation of ^3 H. After counts (minus average nonspecific binding cpm) are expressed as percentages of average maximum binding cpm, bupropion concentrations in plasma samples and spiked controls are read from a standard curve (log concentration vs percent average maximum binding).

anti-compound 1 sera = experiment: RIA of bupropion using 125I-labeled competitor with anti-compound 1 sera: sensitivity; format: binding, rabbit (preferred host animal); details: in conjunction with anti-compound 1 sera; compared with the other iodinated competitors, FIG. 2
Procedure: as §1, with “binding). […]” for “binding).”

[2] = tested on: anti-compound 2 sera, and anti-compound 3 sera; experiment: RIA of bupropion using 125I-labeled competitors with anti-compound 2 sera and anti-compound 3 sera: sensitivity; format: binding, rabbit (preferred host animal); details: with either anti-compound 2 or anti-compound 3 sera; standard curves, FIG. 2
Procedure: as §1, with “7.0). Non-specific binding tubes receive 0.7 ml assay buffer.) Following incubation either at 25° C. for 2 hours or overnight at 4° C., bound and free ^3 H bupropion are separated by incubation for 10 min at 0° C. with 0.5 ml ice-cold dextran-coated charcoal solution (0.25% dextran, 5 mg/ml charcoal, in assay buffer) followed by centrifugation for 10 minutes at 4° C.” for “7.0).”
RIA's have been run according to the method of Example X utilizing ^125 I labeled bupropion competitors of the present invention in conjunction with antisera obtained following immunization with immunogens of the present invention. […] Following the ethanol precipitation of antibody-bound ^125 I-bupropion competitor at equilibrium, ^125 I in the protein pellets was quantified.

| Structure (SMILES) | RIA sensitivity relative to the compound 10 (3H bupropion) assay system [2] | also measured |
| --- | --- | --- |
| CC(NC(C)(C)C)C(=O)c1cccc(Cl)c1 (racemic) [bupropion, (±)-2-tert-butylamino-3'-chloropropiophenone] | – | competition with radiolabeled bupropion or competitor for binding to antisera [1]: successfully compete |
| CC(NC(C)(C)C)C(=NOCC(=O)NCCc1ccc(O)c([125I])c1)c1cccc(Cl)c1 (stereo not drawn) [Compound 6, α-t-Butylamino-3-chloropropiophenone-carboxymethyloxime-^125 I-tyramine amide] | – | RIA sensitivity (anti-compound 1 sera): least sensitive RIA |
| CC(NC(C)(C)C)C(=O)c1ccc(OCC(=O)NCCc2ccc(O)c([125I])c2)c(Cl)c1 (stereo not drawn) [Compound 7, α-t-Butylamino-3-chloro-4-carbomethoxypropiophenone-^125 I-tyramine amide] | sensitivity approximately equal | – |
| CC(NC(C)(C)C)C(=O)c1ccc(CCCOC(=O)CCC(=O)NCCc2ccc(O)c([125I])c2)c(Cl)c1 (stereo not drawn) [Compound 8, α-t-butylamino-3-chloro-4-γ-hydroxypropylpropiophenonehemisuccinate-^125 I-tyramine amide] | sensitivity approximately equal | – |
| CC(NC(C)(C)C)C(=O)c1ccc(O)c([125I])c1 (stereo not drawn) [Compound 9, ^125 I-α-t-Butylamino-3-iodo-4-hydroxypropiophenone] | approximately ten times more sensitive | – |

From patent US4347176A, “Compounds and methods of making same” (Burroughs Wellcome Co., priority 1980, dated 1982)
